This note sets out measurements from PubChem BioAssay (NCI).

Common to all, as to assay: inhibition of tumour cell growth, NCI panel, 48 h
Assay [1] concerns MCF7 breast.
Assay [2] has as its system OVCAR-3 ovarian.
The test system of assay [3] is MDA-N.
Assay [4] deals with UACC-62 melanoma.
Assay [5] has as its system MALME-3M melanoma.
In assay [6] the test system is SK-MEL-5 melanoma.
Assay [7] concerns HT29 colon.
The test system of assay [8] is A498 renal.
The subject of assay [9] is NCI-H226 lung.
For assay [10], the system named is MDA-MB-231 breast.

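The compound was tested at five concentrations on cells cultured in 96-well plates, with a 48-hour exposure period. At the TGI there is no net growth.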 Some results are limits rather than exact numbers.

For `CCOC(=O)/C=C(/C(=O)OCC)n1ccc(=O)[nH]c1=O`, the TGI is 14.9 µM in assay [1]; 12.8 µM in [2]; 25.6 µM in assay [3]; 25.7 µM in assay [4]; 4.4 µM in assay [5]; 31 µM in [6]. Besides, the TGI is 36 µM in [7], 38.2 µM in assay [8], 14.5 µM in [9] and 26.4 µM in assay [10].
Regarding `CCOC(=O)c1ccc(NC(NC(=O)CC)(C(F)(F)F)C(F)(F)F)cc1`, the TGI in [1], in assay [2], in assay [3], in [4], in assay [5] and in assay [6] was over 100 µM throughout. Moreover, the TGI in [7], in assay [8], in assay [9] and in assay [10] was over 100 µM each time.
As to `O=C(CC(=O)Nc1ccccc1Cl)NNC(Sc1ccccc1)c1cc(N=Nc2ccc(Br)cc2)ccc1O` (stereo not given), the TGI in assay [1] was 3.22 µM; in assay [2], 2.91 µM; in assay [3], over 10 µM; in [4], 3.9 µM; in assay [5] it was 8.73 µM; in assay [6], 3.95 µM. The TGI was over 10 µM in assay [7], 5.6 µM in assay [8], 6.04 µM in assay [9] and 8.68 µM in assay [10].
Turning to `O=[N+]([O-])c1ccc(-[n+]2ccc3ccccc3c2)c([N+](=O)[O-])c1`, the TGI in assay [1] was determined as 3.75 µM; in [2], 6.2 µM; in assay [3], 6 µM; in assay [4], 5.53 µM; in [5] it was 9.09 µM; in [6] it was 6.56 µM. Further, the TGI in assay [7] is 6.5 µM; in assay [8] it was 28 µM; in [9], 43.6 µM; in assay [10] it was 9.01 µM.
With `O=C(CCC(=O)OCC1OC(O)(CC2OC(CO)C(O)C(O)C2O)C(O)C1O)OCc1ccccc1` (stereo not given), the TGI in assay [1], in assay [2], in [3], in [4], in assay [5] and in [6] was over 100 µM in each case. Besides, the TGI in [7], in assay [8], in [9] and in [10] was over 100 µM each time.
Take `Cn1c(=O)c2[nH]c(-n3nc(-c4ccccc4)cc3N)nc2n(C)c1=O`: the TGI in assay [1] was over 100 µM; in [2], over 100 µM; in [3], over 100 µM; in assay [4], 27 µM; in assay [5], 47 µM; in [6], 61.9 µM. Moreover, the TGI in assay [7] is over 100 µM; in assay [8] it was 27.9 µM; in assay [9], 33.7 µM; in [10] it was over 100 µM.
As to `c1csc(-c2nnc(C34CC5CC(CC(C5)C3)C4)o2)c1`, the TGI in [1] is over 100 µM; in assay [2], 38.5 µM; in [3], over 100 µM; in assay [4], over 100 µM; in assay [5], 39.4 µM; in assay [6], 30.8 µM. Also, the TGI in [7] was 36.3 µM; in assay [8] it was 43.9 µM; in assay [9], over 100 µM; in assay [10], 45.7 µM.
Turning to `c1ccc(-c2nc3ccccc3n3nnnc23)cc1`, the TGI in assay [1], in [2], in assay [3], in assay [4], in assay [5] and in [6] was over 100 µM throughout. In addition, the TGI in assay [7], in assay [8], in assay [9] and in assay [10] was over 100 µM throughout.
`Cc1nc(N)nc(N)c1N1CCN(Cc2ccccc2)CC1`: the TGI in [1] is over 100 µM; in assay [2] it was over 100 µM; in assay [3] it was over 100 µM; in assay [4], over 100 µM; in assay [5], over 69 µM; in assay [6], over 100 µM. Besides, the TGI in [7], in [8], in [9] and in assay [10] was over 100 µM each time.
On to `C=C1[C@H](OCC(C)C)[C@@H](OC(=O)C(C)CC)[C@@H](O)C(C)(C)/C=C/[C@H](C)C(=O)[C@@]2(O)C[C@H](C)[C@H](O)[C@@H]2[C@H]1OC(=O)C(C)CC` (stereo not given in full), for which the TGI was over 16 µM in assay [1]; over 13.7 µM in assay [2]; over 20 µM in assay [3]; over 20 µM in [4]; over 20 µM in [5]; over 10.8 µM in assay [6]. Also, the TGI in assay [7] is 9.87 µM; in assay [8] it was 12.2 µM; in assay [9], over 20 µM; in [10], over 12.5 µM.
`COc1cccc(/C=N/n2c(Cc3ccc(Cl)cc3)n[nH]c2=O)c1`: the TGI in assay [1] was over 100 µM; in assay [2] it was over 100 µM; in [3] it was over 100 µM; in assay [4], over 82.9 µM; in [5], over 100 µM; in assay [6] it was over 100 µM. Moreover, the TGI in assay [7] is 34 µM; in assay [8], over 100 µM; in [9] it was over 72.3 µM; in [10] it was 48.2 µM.
In the case of `O=C(O)C(CO)NC(=O)C1C(C(=O)O)C(c2ccccc2[N+](=O)[O-])C=C(c2ccco2)N1c1ccncc1` (stereo not given), the TGI was 5.63 µM in assay [1]; 17.1 µM in assay [2]; 8.42 µM in assay [3]; 20.3 µM in [4]; 29.1 µM in [5]; 10.2 µM in [6]. Moreover, the TGI in assay [7] amounted to 3.66 µM; in [8], 24.8 µM; in assay [9], 39.1 µM; in assay [10], 7.56 µM.
For `CC(C)(CN1CCCCC1)C(=O)/C=C/c1c(Cl)cccc1Cl`, the TGI in assay [1] came to 5.31 µM; in assay [2], 2.4 µM; in [3], 2.38 µM; in [4] it was 2.61 µM; in [5], 2.16 µM; in assay [6], 2.92 µM. In addition, the TGI was 2.89 µM in assay [7], 4.96 µM in assay [8], 9.88 µM in [9] and 2.15 µM in assay [10].
In the case of `COc1cc([C@@H]2c3cc4c(cc3[C@@H](Nc3ccc(NC(=O)c5cc(NC(=O)c6cc([N+](=O)[O-])cn6C)cn5C)cc3)[C@H]3COC(=O)[C@H]23)OCO4)cc(OC)c1O`, the TGI in [1] is over 39.1 µM; in assay [2] it was over 100 µM; in assay [3] it was over 100 µM; in [4] it was over 100 µM; in [5], over 100 µM; in assay [6], over 33.5 µM. For the same compound, the TGI in [7] was 98.4 µM; in assay [8] it was over 52.9 µM; in assay [9] it was over 44.4 µM; in [10], over 64 µM.
With `Cc1ccc(CC(=O)Nc2ccc(NC(=O)CNC(=O)/C=C/c3ccc(-c4ccccc4)cc3)cc2C(=O)c2ccccc2)cc1`, the TGI in assay [1] was determined as 3.69 µM; in assay [2], 19.1 µM; in [3], 20.9 µM; in assay [4], 30.8 µM; in assay [5], 12.3 µM; in [6], 6.32 µM. For the same compound, the TGI is 2.99 µM in assay [7], 8.73 µM in [8], 8.39 µM in [9] and 9.21 µM in assay [10].
In the case of `O=[N+]([O-])c1cc(Cl)ccc1S(=O)(=O)c1cc(Cl)cc2c1NCCC2`, the TGI in [1] is over 100 µM; in assay [2], over 100 µM; in [3], over 100 µM; in assay [4], 85.8 µM; in assay [5] it was over 100 µM; in [6], 43.7 µM. Also, the TGI in [7], in assay [8], in [9] and in assay [10] was over 100 µM each time.
As to `Cc1ccnc2sc3ccccc3c(=O)c12`, the TGI is over 100 µM in [1]; over 100 µM in assay [2]; over 100 µM in assay [3]; 63 µM in assay [4]; over 100 µM in [5]; 73.4 µM in [6]. Moreover, the TGI in assay [7] is 93.3 µM; in assay [8] it was over 100 µM; in assay [9] it was over 100 µM; in [10] it was over 100 µM.
Regarding `O=C1C(CN2CCCC2)CCCC1CN1CCCC1` (stereo not given), the TGI was found to be 2.8 µM in assay [1]; 9.62 µM in assay [2]; 19.2 µM in [3]; 31.9 µM in assay [4]; 1.27 µM in assay [5]; 30.4 µM in [6]. Moreover, the TGI in assay [7] came to 33.6 µM; in assay [8], 38.7 µM; in [9] it was 59.1 µM; in [10], 31.1 µM.
Regarding `C/C(NC(=O)c1ccccc1)=C(/C(=O)c1ccccc1)[C@@H]1OC(C)(C)O[C@@H]1[C@H]1COC(C)(C)O1`, the TGI in assay [1] was over 100 µM; in [2] it was over 100 µM; in assay [3] it was 39.1 µM; in assay [4], over 100 µM; in assay [5], over 100 µM; in assay [6], 35.6 µM. The TGI was 86.3 µM in assay [7], over 100 µM in [8], over 100 µM in assay [9] and over 100 µM in [10].
For the compound `CC(C)C(/C=C/c1ccccc1)=N\NC(=S)NN`, the TGI in [1] was over 76.6 µM; in [2], over 88.8 µM; in assay [3], over 31.6 µM; in [4], over 100 µM; in assay [5] it was over 100 µM; in [6], over 100 µM. In addition, the TGI in assay [7], in assay [8], in [9] and in assay [10] was over 100 µM throughout.
